Reference: PMC9428149, “Tackling recalcitrant Pseudomonas aeruginosa infections in critical illness via anti-virulence monotherapy” (Nature Communications, 2022)
Values after ≈ are worked out from the molar mass of the structure shown. Like-named read-outs stand apart in the source and are kept apart here.

What was measured:
[1] = system: pqsA promoter (PA14 PpqsA-GFPASV); experiment: pqsA-GFP reporter expression; type: cell-based, Pseudomonas aeruginosa; settings: Pseudomonas aeruginosa; for activity at 50 µM: PA14, read-out: % Production pqsA-GFP; for IC50: PA14, read-out: IC50 pqsA-GFP expression, PA14, 13 concentrations
[2] = system: PA14 AT/P cells; experiment: AT/P cells formation assay in PA14; type: cell-based, Pseudomonas aeruginosa; settings: Pseudomonas aeruginosa, PA14, 24 h, read-out: inhibition of AT/P cells formation
[3] = system: 16 MDR P. aeruginosa clinical isolates; experiment: Pyocyanin production in MDR clinical isolates; settings: Pseudomonas aeruginosa, 18 h, Control about 100, replicates
Experimental: The over-day culture was grown to OD600nm 1.5., diluted again at 1:10,000 in 5 mL LB and incubated with 10 μM of the test compound or the vehicle control for 18 hours at 37 °C and 200 rpm in an incubator shaker. After 18 h, 1 mL of culture was centrifuged for 2 min at 20.000 x g. The supernatant was transferred to a new tube, 200 μL of this were loaded in a flat-bottom 96-well plate, and the pyocyanin levels were quantified by measuring at OD690nm in the infinite F200 plate reader using the Magellan software (Tecan, Switzerland). The same procedure was also followed for the pyocyanin production assessment for all the P. aeruginosa clinical isolates assessed in this study. The percent of pyocyanin was calculated compared to the PA14 culture grown in the absence of compounds.
Pyocyanin production was measured in 16 P.
aeruginosa clinical isolates 18hr post-growth in the presence or absence of 10 µM of each NAM
compound. The percent of pyocyanin production was calculated by comparing the same strain grown
in the presence of the vehicle control. b.

[4] = system: MvfR-regulated small molecules in PA14; experiment: Production of HAQs, 2-AA, DHQ and AA in PA14 cultures (LC-MS); settings: Pseudomonas aeruginosa
[5] = target: T1, MvfR protein (MvfRC87) (Pseudomonas aeruginosa, UniProt Q9I4X0); type: binding; settings: SPR
T1 construct: The MvfRC87 protein purified as in Xiao et. al., 2006; made in house
Summary of the method: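 MvfRC87 amine-coupled to a CM7 chip (3000–5000 RU) and binding measured by SPR. Double-reference-corrected responses 5 s before end of association plotted against concentration, for inhibitor alone and with native ligand PQS, compared with responses calculated for different binding sites.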

[6] = system: PA14 isogenic mutant ΔmvfR AT/P cells; experiment: AT/P cell formation in ΔmvfR mutant (off-target); settings: Pseudomonas aeruginosa, PA14, 24 h, read-out: AT/P cell formation, ΔmvfR + compound; PA14 about 100; single replicates (Figure 4b)
Experimental: Cells were grown in the presence of 10 μg mL^−1 meropenem, with or without 10 µM of the compounds for 24 h. Values were normalized to cells grown for 4 h in the absence of antibiotics and compounds. The ∆mvfR cells grown with antibiotics and vehicles were considered control, and the percentage values were calculated compared to control. c Biofilm formation of mutant ∆mvfR cells with or without compound. […] The number of biological replicates for each compound and strain is depicted in the graph. The error bars denote ±SEM.
The AT/P cell formation assay was performed according to the method previously described in Starkey et al., 2014 (persister cell assay). The over-day culture was incubated at 37 °C with shaking at 200 rpm until the culture OD600nm was 3.0. The culture was then diluted at 1:100 and grown in the same conditions for 4 h. After 4 h, 200 µL were collected, and serial dilutions were plated on LB agar plates for CFU quantification (as normalizers). The remainder of the culture was treated with meropenem to a final concentration of 100 × MIC (Minimum Inhibitory Concentration; 10 mg L^−1) and compounds at a final concentration of 10 µM. After 24 h, culture aliquots were 10-fold serially diluted in LB broth and plated on LB agar for CFU quantification. The AT/P fraction was determined as the normalizers (pre-antibiotic) ratio divided by the AT/P fraction (24 h post-antibiotic)[22].

[7] = Solubility in iPBS pH 7.4 by HPLC; type: physicochemical; settings: isotonic phosphate buffer (iPBS), aqueous with cosolvent or surfactant or cyclodextrin, kinetic from dmso stock; iPBS pH 7.4, HPLC; read-out: Solubility (M) in PBS
Summary of the method: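 Compounds from 10 mM DMSO stock shaken 4 h at room temperature in iPBS pH 7.4 (10 mM PBS, 2.7 mM KCl, 140 mM NaCl, 0.05% Tween), then filtered. Concentration measured by HPLC-UV against a known standard solution; solubility given as ratio of compound in test solution to standard.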

[8] = system: pyocyanin production in PA14; experiment: Pyocyanin production assay; settings: Pseudomonas aeruginosa; for activity at 50 µM: PA14, 18 h, read-out: % Production Pyocyanin; for IC50: PA14, read-out: IC50 pyocyanin production
[9] = system: ΔmvfR biofilm; experiment: Biofilm formation of ΔmvfR mutant (off-target); settings: Pseudomonas aeruginosa, PA14, 24 h, read-out: Biofilm formation, ΔmvfR + compound; PA14 about 100; single replicates (Figure 4c)
[10] = system: mvfR mutant constitutively expressing the pqsABCDE operon; type: cell-based; settings: Pseudomonas aeruginosa, control about 100, single replicates (Figure 4a)
[11] = read-out: Pyocyanin production relative to Control, clinical isolate LGR-4325
[12] = read-out: Pyocyanin production relative to Control, clinical isolate LGR-4326
[13] = read-out: Pyocyanin production relative to Control, clinical isolate LGR-4327
[14] = read-out: Pyocyanin production relative to Control, clinical isolate LGR-4328
[15] = read-out: Pyocyanin production relative to Control, clinical isolate LGR-4330
[16] = read-out: Pyocyanin production relative to Control, clinical isolate LGR-4331 (first section, r117)
[17] = read-out: Pyocyanin production relative to Control, clinical isolate LGR-4331 (second section, r140)
[18] = read-out: Pyocyanin production relative to Control, clinical isolate LGR-4333
[19] = read-out: Pyocyanin production relative to Control, clinical isolate LGR-4343
[20] = read-out: Pyocyanin production relative to Control, clinical isolate LGR-4344
[21] = read-out: Pyocyanin production relative to Control, clinical isolate LGR-4348
[22] = read-out: Pyocyanin production relative to Control, clinical isolate LGR-4356
[23] = read-out: Pyocyanin production relative to Control, clinical isolate LGR-4362
[24] = read-out: Pyocyanin production relative to Control, clinical isolate LGR-4363
[25] = read-out: Pyocyanin production relative to Control, clinical isolate LGR-4364 (first section, r326)
[26] = read-out: Pyocyanin production relative to Control, clinical isolate LGR-4364 (second section, r349)
[27] = PA14, read-out: % Production 2-AA
[28] = PA14, read-out: % Production AA
[29] = PA14, read-out: % Production DHQ
[30] = PA14, read-out: % Production HHQ
[31] = PA14, read-out: % Production HQNO
[32] = PA14, read-out: % Production PQS
[33] = PA14, read-out: HHQ production inhibition
[34] = PA14, read-out: HQNO production inhibition
[35] = PA14, read-out: PQS production inhibition
[36] = PA14, read-out: inhibition of 2-AA production
[37] = PA14, read-out: inhibition of DHQ production
[38] = read-out: HQNO, ΔmvfR-pqsABCD strain

T1 sequence (Q9I4X0 87-332): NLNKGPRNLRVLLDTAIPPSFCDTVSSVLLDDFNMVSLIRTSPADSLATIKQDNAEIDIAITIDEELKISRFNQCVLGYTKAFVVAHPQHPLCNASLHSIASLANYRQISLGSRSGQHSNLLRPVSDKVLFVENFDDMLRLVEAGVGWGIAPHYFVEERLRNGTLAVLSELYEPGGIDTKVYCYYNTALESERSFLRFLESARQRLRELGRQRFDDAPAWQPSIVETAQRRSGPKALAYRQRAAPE

## CC(C(=O)Nc1ccc(C#N)cc1)C(=O)Nc1ccc(C#N)cc1 [D80]
[1]
  activity at 50 µM: 10%
  IC50: 10600 nM
[2]
  inhibition at 10 µM: ≥ 51%
[3]; [11]
  activity at 10 µM: 40%
[3]; [12]
  activity at 10 µM: 39.5%
[3]; [13]
  activity at 10 µM: 32.3%
[3]; [14]
  activity at 10 µM: 30.6%
[3]; [15]
  activity at 10 µM: 15.3%
[3]; [16]
  activity at 10 µM: 41.5%
[3]; [17]
  activity at 10 µM: 37.9%
[3]; [18]
  activity at 10 µM: 65.7%
[3]; [19]
  activity at 10 µM: 62%
[3]; [20]
  activity at 10 µM: 31.8%
[3]; [21]
  activity at 10 µM: 39.5%
[3]; [22]
  activity at 10 µM: 32.3%
[3]; [23]
  activity at 10 µM: 30.6%
[3]; [24]
  activity at 10 µM: 15.3%
[3]; [25]
  activity at 10 µM: 41.5%
[3]; [26]
  activity at 10 µM: 37.9%
[4]; [27]
  activity at 50 µM: 16%
[4]; [28]
  activity at 50 µM: 832%
[4]; [29]
  activity at 50 µM: 20%
[4]; [30]
  activity at 50 µM: 8%
[4]; [31]
  activity at 50 µM: 64%
[4]; [32]
  activity at 50 µM: 20%
[4]; [33]
  inhibition at 50 µM: 89 to 99%
[4]; [34]
  inhibition at 50 µM: 40 to 92%
[4]; [35]
  inhibition at 50 µM: 76 to 97%
[4]; [36]
  inhibition at 50 µM: 82 to 95%
[4]; [37]
  inhibition at 50 µM: 82 to 96%
[5]; Concentration 1.00E-05 M
  Response Unit (RU): 35.4 RU
[5]; Concentration 1.00E-06 M
  Response Unit (RU): 22.9 RU
[5]; Concentration 1.00E-07 M
  Response Unit (RU): 7 RU
[5]; Concentration 1.00E-08 M
  Response Unit (RU): 0.6 RU
[5]; Concentration 3.16E-06 M
  Response Unit (RU): 30.6 RU
[5]; Concentration 3.16E-07 M
  Response Unit (RU): 13.9 RU
[5]; Concentration 3.16E-08 M
  Response Unit (RU): 2.6 RU
[6]
  activity at 10 µM: 36%
[7]
  solubility at 4 h: 2.9e-05 M (≈ 9.23 µg/mL)
[8]
  activity at 50 µM: 7%
  IC50: 3600 nM
[9]
  activity at 10 µM: 42.3%
[10]; read-out: 2-AA, ΔmvfR-pqsABCD strain
  activity at 50 µM: 101%
[10]; read-out: DHQ, ΔmvfR-pqsABCD strain
  activity at 50 µM: 101%
[10]; read-out: HHQ, ΔmvfR-pqsABCD strain
  activity at 50 µM: 96.1%
[10]; [38]
  activity at 50 µM: 86.4%
[10]; read-out: PQS, ΔmvfR-pqsABCD strain
  activity at 50 µM: 99.4%

## N#Cc1ccc(NC(=O)CC(=O)Nc2ccc(Cl)cc2)cc1 [D41]
[1]
  activity at 50 µM: 8%
  IC50: 1090 nM
[2]
  inhibition at 10 µM: ≥ 76%
[3]; [11]
  activity at 10 µM: 15.5%
[3]; [12]
  activity at 10 µM: 14.8%
[3]; [13]
  activity at 10 µM: 34.4%
[3]; [14]
  activity at 10 µM: 11.9%
[3]; [15]
  activity at 10 µM: 13.4%
[3]; [16]
  activity at 10 µM: 17.4%
[3]; [17]
  activity at 10 µM: 10.7%
[3]; [18]
  activity at 10 µM: 18.8%
[3]; [19]
  activity at 10 µM: 17.4%
[3]; [20]
  activity at 10 µM: 21.8%
[3]; [21]
  activity at 10 µM: 17.7%
[3]; [22]
  activity at 10 µM: 18.8%
[3]; [23]
  activity at 10 µM: 35.7%
[3]; [24]
  activity at 10 µM: 23.4%
[3]; [25]
  activity at 10 µM: 19.1%
[3]; [26]
  activity at 10 µM: 22%
[4]; [27]
  activity at 50 µM: 6%
[4]; [28]
  activity at 50 µM: 739%
[4]; [29]
  activity at 50 µM: 11%
[4]; [30]
  activity at 50 µM: 2%
[4]; [31]
  activity at 50 µM: 15%
[4]; [32]
  activity at 50 µM: 9%
[4]; [33]
  inhibition at 50 µM: 89 to 99%
[4]; [34]
  inhibition at 50 µM: 40 to 92%
[4]; [35]
  inhibition at 50 µM: 76 to 97%
[4]; [36]
  inhibition at 50 µM: 82 to 95%
[4]; [37]
  inhibition at 50 µM: 82 to 96%
[5]; Concentration 1.00E-05 M
  Response Unit (RU): 28.8 RU
[5]; Concentration 1.00E-06 M
  Response Unit (RU): 22.7 RU
[5]; Concentration 1.00E-07 M
  Response Unit (RU): 10.6 RU
[5]; Concentration 1.00E-08 M
  Response Unit (RU): 2.6 RU
[5]; Concentration 3.16E-06 M
  Response Unit (RU): 26.5 RU
[5]; Concentration 3.16E-07 M
  Response Unit (RU): 16.9 RU
[5]; Concentration 3.16E-08 M
  Response Unit (RU): 5.4 RU
[6]
  activity at 10 µM: 43.4%
[7]
  solubility at 4 h: 1.3e-05 M (≈ 4.08 µg/mL)
[8]
  activity at 50 µM: 6%
  IC50: 1800 nM
[9]
  activity at 10 µM: 25.4%
[10]; [38]
  activity at 50 µM: 81.9%
